Measurements as given in PubChem BioAssay AID330 (DTP/NCI, 2004).
Several values for one entry are separate records, joined by “and”; a condition that tells them apart may be missing. Equal values may be shown once. Toxic doses and inconclusive results are not listed.

System: P388 leukemia ip, CD2F1 mice, survival T/C
Assay: NCI In Vivo Anticancer Drug Screen. Data for tumor model P388 Leukemia (intraperitoneal) in CD2F1 (CDF1) mice
Details: endpoint: median survival time, higher = longer survival
In short: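 Mice carrying the transplanted tumor received test compound or vehicle. Survival was recorded in each group, and the value is the treated-group measurement divided by that of the vehicle-treated control group.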

[1] = dose: 100.0 mg/kg/injection, schedule: Q04DX003 (ip), vehicle: Klucel (hydroxypropylcellulose) (HPC)
[2] = dose: 200.0 mg/kg/injection, schedule: Q04DX003 (ip), vehicle: Klucel (hydroxypropylcellulose) (HPC)
[3] = dose: 400.0 mg/kg/injection, schedule: Q04DX003 (ip), vehicle: Klucel (hydroxypropylcellulose) (HPC)
[4] = dose: 50.0 mg/kg/injection, schedule: Q01DX009 (ip), vehicle: saline with Tween-80
[5] = dose: 100.0 mg/kg/injection, schedule: Q01DX009 (ip), vehicle: saline with Tween-80
[6] = dose: 200.0 mg/kg/injection, schedule: Q01DX009 (ip), vehicle: saline with Tween-80
[7] = dose: 50.0 mg/kg/injection, schedule: Q01DX005 (ip), vehicle: Klucel (hydroxypropylcellulose) (HPC)
[8] = dose: 100.0 mg/kg/injection, schedule: Q01DX005 (ip), vehicle: Klucel (hydroxypropylcellulose) (HPC)
[9] = dose: 200.0 mg/kg/injection, schedule: Q01DX005 (ip), vehicle: Klucel (hydroxypropylcellulose) (HPC)
[10] = dose: 100.0 mg/kg/injection, schedule: Q01DX009 (ip), vehicle: saline
[11] = dose: 200.0 mg/kg/injection, schedule: Q01DX009 (ip), vehicle: saline
[12] = dose: 50.0 mg/kg/injection, schedule: Q01DX005 (ip), vehicle: saline
[13] = dose: 100.0 mg/kg/injection, schedule: Q01DX005 (ip), vehicle: saline
[14] = dose: 200.0 mg/kg/injection, schedule: Q01DX005 (ip), vehicle: saline
[15] = dose: 60.0 mg/kg/injection, schedule: Q01DX005 (ip), vehicle: Klucel (hydroxypropylcellulose) (HPC)
[16] = dose: 120.0 mg/kg/injection, schedule: Q01DX005 (ip), vehicle: Klucel (hydroxypropylcellulose) (HPC)
[17] = dose: 50.0 mg/kg/injection, schedule: Q01DX009 (ip), vehicle: saline
[18] = dose: 60.0 mg/kg/injection, schedule: Q01DX005 (ip), vehicle: saline with Tween-80
[19] = dose: 120.0 mg/kg/injection, schedule: Q01DX005 (ip), vehicle: saline with Tween-80
[20] = dose: 240.0 mg/kg/injection, schedule: Q01DX005 (ip), vehicle: saline with Tween-80
[21] = dose: 240.0 mg/kg/injection, schedule: Q01DX005 (ip), vehicle: Klucel (hydroxypropylcellulose) (HPC)

CC(C)c1oc(=O)cc2c1[C@@H](O)[C@H]1OC(=O)[C@@]3(C)[C@@H](O)[C@H]4O[C@H]4[C@@]2(C)[C@@H]13
T/C (dose: 0.94 mg/kg/injection, schedule: Q01DX001 (ip), vehicle: saline with Tween-80): 105 % of control | T/C (dose: 1.0 mg/kg/injection, schedule: Q01DX009 (ip), vehicle: saline with Tween-80): 104 % of control | T/C (dose: 1.88 mg/kg/injection, schedule: Q01DX001 (ip), vehicle: saline with Tween-80): 105 % of control | T/C (dose: 3.75 mg/kg/injection, schedule: Q01DX001 (ip), vehicle: saline with Tween-80): 101 % of control and 107 % of control | T/C (dose: 7.5 mg/kg/injection, schedule: Q01DX009 (ip), vehicle: saline with Tween-80): 120 % of control | T/C (dose: 10.0 mg/kg/injection, schedule: Q01DX009 (ip), vehicle: saline with Tween-80): 113 % of control and 115 % of control | T/C (dose: 15.0 mg/kg/injection, schedule: Q01DX001 (ip), vehicle: saline with Tween-80): 108 % of control and 120 % of control | T/C (dose: 15.0 mg/kg/injection, schedule: Q01DX009 (ip), vehicle: saline with Tween-80): 104 % of control | T/C (dose: 30.0 mg/kg/injection, schedule: Q01DX001 (ip), vehicle: saline with Tween-80): 109 % of control and 113 % of control

COC(=O)C1=C(C(=O)OC)C2(C)C=CC1C1C(OC(C)=O)C(OC(C)=O)C12 (stereo not drawn)
T/C [1]: 105 % of control | T/C [2]: 108 % of control | T/C [3]: 107 % of control

CC[n+]1c2ccc(C)cc2nc2c3ccccc3c(N)cc21
T/C (dose: 5.0 mg/kg/injection, schedule: Q01DX009 (ip), vehicle: saline): 110 % of control | T/C (dose: 10.0 mg/kg/injection, schedule: Q01DX009 (ip), vehicle: saline): 106 % of control | T/C (dose: 20.0 mg/kg/injection, schedule: Q01DX009 (ip), vehicle: saline): 99 % of control

C=C(C)/C(=C/C(=O)OCC)Sc1ccccc1
T/C [1]: 106 % of control | T/C [2]: 106 % of control | T/C [3]: 102 % of control

O=C(O)C(=O)c1ccc(-c2ccccc2)cc1
T/C (dose: 50.0 mg/kg/injection, schedule: Q04DX003 (ip), vehicle: saline): 104 % of control | T/C (dose: 100.0 mg/kg/injection, schedule: Q04DX003 (ip), vehicle: saline): 100 % of control

O=C(O)c1oc2ccccc2c1C=C(c1ccccc1)c1ccccc1
T/C [4]: 101 % of control | T/C [5]: 101 % of control

COc1ccccc1N=C1SCC(=O)N1Cc1ccco1
T/C [4]: 95 % of control | T/C [5]: 95 % of control | T/C [6]: 92 % of control

O=C1c2c(-c3ccccc3)ccc(-c3ccccc3)c2C2(O)OC1(O)c1c(-c3ccccc3)ccc(-c3ccccc3)c1C2=O
T/C [7]: 94 % of control | T/C [8]: 90 % of control | T/C [9]: 92 % of control

Cc1c2ccncc2c(C)c2c1sc1ccccc12
T/C (dose: 12.5 mg/kg/injection, schedule: Q04DX003 (ip), vehicle: alkali diluted with water): 121 % of control | T/C (dose: 200.0 mg/kg/injection, schedule: Q04DX003 (ip), vehicle: alkali diluted with water): 162 % of control | T/C (dose: 200.0 mg/kg/injection, schedule: Q04DX003 (ip), vehicle: distilled water + Tween-80): 155 % of control | T/C (dose: 400.0 mg/kg/injection, schedule: Q04DX003 (ip), vehicle: distilled water + Tween-80): 117 % of control

CC(=O)OC1CCC(C2CCCCC2)CC1 (stereo not drawn)
T/C [10]: 102 % of control | T/C [11]: 97 % of control | T/C (dose: 400.0 mg/kg/injection, schedule: Q01DX009 (ip), vehicle: saline): 101 % of control

CCCCCCC(=O)/C=C/c1ccc(OC(=O)c2ccc(C)cc2)cc1
T/C [4]: 95 % of control | T/C [5]: 93 % of control | T/C [6]: 93 % of control

O=C(NCO)NS(=O)(=O)c1ccc(N2C(=O)c3ccccc3C2=O)cc1
T/C (dose: 50.0 mg/kg/injection, schedule: Q01DX009 (ip), vehicle: Klucel (hydroxypropylcellulose) (HPC)): 103 % of control | T/C (dose: 100.0 mg/kg/injection, schedule: Q01DX009 (ip), vehicle: Klucel (hydroxypropylcellulose) (HPC)): 107 % of control | T/C (dose: 200.0 mg/kg/injection, schedule: Q01DX009 (ip), vehicle: Klucel (hydroxypropylcellulose) (HPC)): 112 % of control

CCN(CC)c1ccc(C(NCCC(C)C)C(Cl)(Cl)Cl)cc1 (stereo not drawn)
T/C [12]: 97 % of control | T/C [13]: 101 % of control | T/C [14]: 101 % of control

COC(=O)c1nc(N)nc(C(=O)OC)c1C(=O)c1ccc(Cl)cc1
T/C [15]: 103 % of control | T/C [16]: 101 % of control

CCCCCCC(=O)/C=C/c1cccc(OCOC)c1
T/C [4]: 87 % of control | T/C [5]: 113 % of control | T/C [6]: 103 % of control

CCOC(=O)C1=C(NC(C)=O)Sc2ccccc2C1
T/C [17]: 94 % of control | T/C [10]: 103 % of control | T/C [11]: 92 % of control

CCO/C=C1/N=C(c2cccc3ccccc23)OC1=O
T/C [18]: 99 % of control | T/C [19]: 99 % of control | T/C [20]: 99 % of control

COC(=O)C1(F)C(=O)NC(=O)NC1OC (stereo not drawn)
T/C (dose: 30.0 mg/kg/injection, schedule: Q04DX002 (ip), vehicle: Klucel (hydroxypropylcellulose) (HPC)): 117 % of control | T/C (dose: 60.0 mg/kg/injection, schedule: Q04DX002 (ip), vehicle: Klucel (hydroxypropylcellulose) (HPC)): 118 % of control and 123 % of control | T/C (dose: 240.0 mg/kg/injection, schedule: Q04DX002 (ip), vehicle: Klucel (hydroxypropylcellulose) (HPC)): 157 % of control | T/C (dose: 480.0 mg/kg/injection, schedule: Q04DX002 (ip), vehicle: Klucel (hydroxypropylcellulose) (HPC)): 164 % of control

CC(O)c1nc2ccccc2nc1C(=O)Nc1ccccc1N (stereo not drawn)
T/C (dose: 50.0 mg/kg/injection, schedule: Q01DX005 (ip), vehicle: saline with Tween-80): 101 % of control | T/C (dose: 100.0 mg/kg/injection, schedule: Q01DX005 (ip), vehicle: saline with Tween-80): 88 % of control | T/C (dose: 200.0 mg/kg/injection, schedule: Q01DX005 (ip), vehicle: saline with Tween-80): 92 % of control

O=C1NN=C(c2ccccc2)CS1
T/C [4]: 98 % of control | T/C [5]: 101 % of control

[N-]=[N+]=NCC1OC(n2cnc3c(=O)[nH]c(N)nc32)C(O)C1O (stereo not drawn)
T/C [15]: 107 % of control | T/C [16]: 107 % of control | T/C [21]: 106 % of control

C=CC1O[C@H](C)C[C@H](C)O1 (stereo partly drawn)
T/C (dose: 60.0 mg/kg/injection, schedule: Q01DX005 (ip), vehicle: saline): 109 % of control | T/C (dose: 120.0 mg/kg/injection, schedule: Q01DX005 (ip), vehicle: saline): 100 % of control | T/C (dose: 240.0 mg/kg/injection, schedule: Q01DX005 (ip), vehicle: saline): 104 % of control

N=c1nc(-c2ccccc2)c(-c2ccccc2)nn1CC(=O)c1ccccc1
T/C [7]: 112 % of control | T/C [8]: 101 % of control | T/C [9]: 94 % of control

CCCC1(c2ccccc2)C(=O)NCNC1=O
T/C (dose: 20.0 mg/kg/injection, schedule: Q01DX005 (ip), vehicle: Klucel (hydroxypropylcellulose) (HPC)): 100 % of control | T/C (dose: 40.0 mg/kg/injection, schedule: Q01DX005 (ip), vehicle: Klucel (hydroxypropylcellulose) (HPC)): 99 % of control and 109 % of control | T/C [15]: 100 % of control and 116 % of control | T/C [16]: 93 % of control and 95 % of control | T/C [21]: 92 % of control

O=Cc1ccc([N+](=O)[O-])s1
T/C [17]: 120 % of control

O=C(O)c1c(Cl)cccc1Cl
T/C (dose: 25.0 mg/kg/injection, schedule: Q01DX009 (ip), vehicle: saline with Tween-80): 109 % of control | T/C (dose: 25.0 mg/kg/injection, schedule: Q04DX003 (ip), vehicle: saline with Tween-80): 100 % of control | T/C [4]: 100 % of control | T/C (dose: 50.0 mg/kg/injection, schedule: Q04DX003 (ip), vehicle: saline with Tween-80): 95 % of control | T/C [5]: 100 % of control | T/C (dose: 100.0 mg/kg/injection, schedule: Q04DX003 (ip), vehicle: saline with Tween-80): 95 % of control

COC(OC)(OC)OC
T/C [12]: 104 % of control | T/C [13]: 108 % of control | T/C [14]: 109 % of control

COc1cc([C@H]2c3cc4c(cc3CC3COC(=O)[C@@H]32)OCO4)cc(Br)c1O (stereo partly drawn)
T/C (dose: 15.0 mg/kg/injection, schedule: Q01DX005 (ip), vehicle: saline with Tween-80): 101 % of control | T/C (dose: 30.0 mg/kg/injection, schedule: Q01DX005 (ip), vehicle: saline with Tween-80): 101 % of control | T/C [18]: 99 % of control and 104 % of control | T/C [19]: 110 % of control | T/C [20]: 110 % of control
